Disease level data for one compound are collected here from patent US6696607B2 (priority 2000, dated 2004).

This test relates to Phytophthora infestans. Type of test: in vivo. The note with it: 63 ppm active ingredient; tomato leaves infected one week after application; assessed after 6 days; untreated plants 100%.

The structures appear in SMILES notation.

Turning to `CO/N=C(/C(=O)NCCc1ccc(OC)c(OC)c1)c1ccc(Cl)cc1` [comparative active ingredient], the disease level turned out to be 40%.
